Legend:
cIAP1 (BIR3) = biological target: T1, cIAP1 (BIR3) (Homo sapiens, UniProt Q13490); assay: TR-FRET IAP/Smac peptide interaction assay, cIAP1; conditions: FITC-Smac probe, read-out: Binding affinity IC50 cIAP1
T1 construct: human cIAP1 (BIR3, Leu250-Gly350); made in house; host or cells: E. coli
Protocol: (§1) The TR-FRET assay was carried out using 384-well white flat-bottom plates (Greiner Bio-One) and the signal was measured using an EnVision Multilabel Plate Reader (PerkinElmer, Waltham, MA, USA). The solution in each well was excited with a laser (λ = 337 nm) reflected by a dichroic mirror (D400/D505 (Perkin Elmer) and fluorescence from terbium (Tb) and BODIPY or FITC was detected through two emission filters (CFP 486 (Perkin Elmer) for Tb and Emission 515 (Perkin Elmer) for BODIPY and FITC). The assay buffer used in this study was composed of 50 mM HEPES (pH 7.2–7.5), 10 mM MgCl2, 1 mM EGTA, 0.1 mM DTT and 0.01% (v/v) Brij^(R) 35. All assays were carried out at room temperature in triplicate or quadruplicate formats.
(§2) The half maximal inhibitory concentration (IC50) of test compounds was calculated by fitting the data with the logistic equation using GraphPad Prism 5 (GraphPad Software, Inc., La Jolla, CA, USA) or XLfit (IDBS, Guildford, UK).
(§3) His-IAP proteins (XIAP, cIAP1 or cIAP2), FITC-Smac, Tb-SA and the biotinylated anti-His antibody (Life Technologies) were mixed in the assay buffer and incubated for over 1 h at room temperature before addition to the assay plate. […] After 1 h incubation at room temperature, the TR-FRET signal was measured using the EnVision Multilabel Plate Reader. […]

MOLT-4 cells = assay: WST cell growth inhibition, MOLT-4 (BCR-ABL negative); type: cell-based; conditions: Homo sapiens, MOLT4 cells, 48 h, WST assay, means ± SD (n = 3)
K562 cells [1] = assay: WST cell growth inhibition, K562; type: cell-based, Human; conditions: 48 h, WST assay; for IC50: Homo sapiens, means ± SD (n = 3)
Protocol: Human CML (K562 and KU812 cells), acute T-lymphoblast leukemia (MOLT-4 cell), and T cell leukemia (Jurkat cell) were cultured in Roswell Park Memorial Institute-1640 medium (Sigma-Aldrich, St. Louis, MO, USA) containing 10% fetal bovine serum (Thermo Fisher Scientific, Waltham, MA, USA) and 50 μg/ml kanamycin (Sigma-Aldrich). KU812 cells were obtained from Japanese Collection of Research Bioresources (JCRB, Osaka, Japan) Cell Bank (JCRB0104)[58].
Cell viability was determined using water-soluble tetrazolium WST-8 (4-[3-(2-methoxy-4-nitrophenyl)-2-(4-nitrophenyl)-2H-5-tetrazolio]-1,3-benzene disulfonate) for the spectrophotometric assay and conducted according to the manufacturer’s instructions (Dojindo, Tokyo, Japan). Cells were seeded at a concentration of 5 × 10^3 cells per well in a 96-well culture plate, and treated with the indicated compounds for 48 h. The WST-8 reagent was added, and the cells were incubated for 0.5 h at 37 °C in a humidified atmosphere of 5% CO2. The absorbance at 450 nm of the medium was measured using the EnVision Multilabel Plate Reader.

XIAP (BIR3) = biological target: T2, XIAP (BIR3) (Homo sapiens, UniProt P98170); assay: TR-FRET IAP/Smac peptide interaction assay, XIAP; conditions: FITC-Smac probe, read-out: Binding affinity IC50 XIAP
T2 construct: human XIAP (BIR3, Asn252-Thr356, 895-XB-050); purchased R&D Systems 895-XB-050
T2 sequence (P98170 252-356): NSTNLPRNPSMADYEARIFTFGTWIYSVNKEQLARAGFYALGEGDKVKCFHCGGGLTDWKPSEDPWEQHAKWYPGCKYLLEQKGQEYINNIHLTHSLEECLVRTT
Protocol: as §1, §2, §3

cIAP2 (BIR3) = biological target: T3, cIAP2 (BIR3) (Homo sapiens, UniProt Q13489); assay: TR-FRET IAP/Smac peptide interaction assay, cIAP2; conditions: FITC-Smac probe, read-out: Binding affinity IC50 cIAP2
T3 construct: cIAP2 (BIR3, Gln238-Ser349) proteins were expressed in E. coli; made in house; host or cells: E. coli
T3 sequence (Q13489 238-349): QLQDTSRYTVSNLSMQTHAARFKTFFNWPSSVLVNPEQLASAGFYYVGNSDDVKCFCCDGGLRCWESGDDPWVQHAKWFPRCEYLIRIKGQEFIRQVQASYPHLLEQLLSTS
Protocol: as §1, §2, §3

[2] = tested on: caspase 3 activation and PARP cleavage; assay: Caspase activation and PARP cleavage after drug removal in K562 cells; type: cell-based, Human; conditions: K562, 50 times IC50 for 12 h, drug removal for 24 h
Protocol: Cells were collected and lysed in a lysis buffer (0.5% Triton X-100, 0.01 M Tris-HCl (pH 7.5), 0.15 M NaCl, Complete Mini protease inhibitor cocktail (Roche Applied Science, Indianapolis, IL, USA) and PhosStop phosphatase inhibitor cocktail (Roche Applied Science)). Protein concentrations were measured by the BCA method (Thermo Fisher Scientific) and an equal amount of protein lysate was separated by SDS-PAGE, transferred to polyvinylidene difluoride membranes (Merck Millipore) and analyzed by western blot using an appropriate antibody. The immunoreactive proteins were visualized using Clarity Western ECL substrate (Bio-Rad, Hercules, CA, USA) and their light emission was quantified with a LAS-3000 lumino-image analyzer (Fuji, Tokyo, Japan). The following antibodies were used: anti-cAbl rabbit polyclonal antibody (pAb) (#2862), anti-XIAP rabbit pAb (#2042), anti-phospho-cAbl rabbit pAb (#3009), anti-STAT5 rabbit pAb (#9363), anti-phospho-STAT5 rabbit pAb (#9359), anti-CrkL mouse monoclonal antibody (mAb) (#3182) and anti-phospho-CrkL rabbit pAb (#3181), anti-PARP rabbit pAb (#9532), and anti-cleaved Caspase 3 rabbit pAb (#9664) (Cell Signaling Technology, Danvers, MA, USA); anti-β-tubulin (ab6046) rabbit pAb (Abcam, Cambridge, UK) and anti-GAPDH rabbit pAb (sc-25778 HRP) (Santa Cruz, Dallas, TX, USA); anti-cIAP1 goat pAb (AF8181) (R&D systems).
(§4) Cells were seeded at a concentration of 2 × 10^6 cells per 10-cm tissue culture dish and treated with the indicated compounds for the indicated times. Then, the cells were washed three times to remove the compounds, and incubated in drug-free medium for the indicated times.

K562 cells [3] = assay: Washout experiment, cell counting of K562 cells; type: cell-based, Human; conditions: washed; for growth of K562 cells after drug removal: 25 or 50 times IC50 for 12 h, drug-free medium for 6 d
Protocol: as §4

T1 sequence (Q13490 250-350): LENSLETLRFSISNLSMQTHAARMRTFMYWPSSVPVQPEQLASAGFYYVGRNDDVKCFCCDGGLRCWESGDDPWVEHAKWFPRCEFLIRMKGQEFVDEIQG

Row | Compound | IC50 (cIAP1 (BIR3)) [nM] | IC50 (MOLT-4 cells) [nM] | suppression of K562 cell growth (comparison) (K562 cells [1]) | IC50 (K562 cells [1]) [nM] | IC50 (XIAP (BIR3)) [nM] | IC50 (cIAP2 (BIR3)) [nM] | caspase 3 activation and PARP cleavage [2] | growth of K562 cells after drug removal (K562 cells [3]) | K562 cell number after drug removal (K562 cells [3]; 50 times IC50 for 12 h, drug-free medium)
1 | CN[C@@H](C)C(=O)N[C@H](C(=O)N1CCC[C@H]1c1nc(C(=O)c2cccc(OCCOCCOCCOCC(=O)N3CCN(c4cc(Nc5ncc(C(=O)Nc6c(C)cccc6Cl)s5)nc(C)n4)CC3)c2)cs1)C1CCCCC1 [DAS-IAP] | 10 | 1720 ± 64.9 | more potent suppression of K562 cell growth than DAS-VHL | 8.6 | 50 | 12 | induced | markedly inhibited the growth | decreased continuously
2 | CN[C@@H](C)C(=O)N(C)[C@H](C(=O)N1CCC[C@H]1c1nc(C(=O)c2cccc(OCCOCCOCCOCC(=O)N3CCN(c4cc(Nc5ncc(C(=O)Nc6c(C)cccc6Cl)s5)nc(C)n4)CC3)c2)cs1)C1CCCCC1 [DAS-meIAP] | > 1000 | 1900 ± 108 |  | 3.93 | > 1000 | > 1000 | not | slightly delayed the growth | 

— PMC6131351, “Pharmacological difference between degrader and inhibitor against oncogenic BCR-ABL kinase” (Scientific Reports, 2018)
